Reference: paper PMC3447535 (Neuropharmacology, 2012)
Values belong to the compound of their own block, whether it stands above or below them.

What was measured:
[1] = test system: 6X-CRE-β-galactosidase CREB reporter gene in PC12 cells; experiment: CREB reporter gene assay; format: cell-based; settings: for effect on forskolin induction of the CREB reporter gene: in the presence of forskolin (10 μM), 4 hr, library compounds 20 μM
[2] = test system: Egr1-EGFP reporter gene in primary cultured cortical neurons; experiment: Egr1 reporter gene assay; format: cell-based, mouse; settings: 24 hour treatments
Grn (granulin) = settings: ref Cenik et al., 2011; cited from earlier work
[3] = Crebinostat concentration in brain and plasma; format: in vivo, mouse; settings: single IP dose 25 mg/kg
recombinant HDAC2 = recombinant HDAC2 (Homo sapiens, UniProt Q92769); experiment: In vitro HDAC enzymatic assay, HDAC2
Sequence of recombinant HDAC2 (Q92769 whole entry): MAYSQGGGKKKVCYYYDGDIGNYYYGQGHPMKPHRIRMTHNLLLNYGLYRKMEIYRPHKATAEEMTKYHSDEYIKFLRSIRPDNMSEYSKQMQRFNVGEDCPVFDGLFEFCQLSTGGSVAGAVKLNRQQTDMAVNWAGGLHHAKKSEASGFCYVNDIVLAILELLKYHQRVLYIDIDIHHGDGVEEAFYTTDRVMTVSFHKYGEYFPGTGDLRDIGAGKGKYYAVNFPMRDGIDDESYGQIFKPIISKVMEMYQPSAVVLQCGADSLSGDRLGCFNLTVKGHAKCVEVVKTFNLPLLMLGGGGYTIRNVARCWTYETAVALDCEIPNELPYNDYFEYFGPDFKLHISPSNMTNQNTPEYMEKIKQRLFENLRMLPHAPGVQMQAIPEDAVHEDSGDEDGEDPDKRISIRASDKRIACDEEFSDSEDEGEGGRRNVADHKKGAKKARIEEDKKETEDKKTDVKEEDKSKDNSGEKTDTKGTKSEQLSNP

recombinant HDAC6 = target: T1, recombinant HDAC6 (Homo sapiens, UniProt Q9UBN7); experiment: In vitro HDAC enzymatic assay, HDAC6
T1 sequence (Q9UBN7 1-1215): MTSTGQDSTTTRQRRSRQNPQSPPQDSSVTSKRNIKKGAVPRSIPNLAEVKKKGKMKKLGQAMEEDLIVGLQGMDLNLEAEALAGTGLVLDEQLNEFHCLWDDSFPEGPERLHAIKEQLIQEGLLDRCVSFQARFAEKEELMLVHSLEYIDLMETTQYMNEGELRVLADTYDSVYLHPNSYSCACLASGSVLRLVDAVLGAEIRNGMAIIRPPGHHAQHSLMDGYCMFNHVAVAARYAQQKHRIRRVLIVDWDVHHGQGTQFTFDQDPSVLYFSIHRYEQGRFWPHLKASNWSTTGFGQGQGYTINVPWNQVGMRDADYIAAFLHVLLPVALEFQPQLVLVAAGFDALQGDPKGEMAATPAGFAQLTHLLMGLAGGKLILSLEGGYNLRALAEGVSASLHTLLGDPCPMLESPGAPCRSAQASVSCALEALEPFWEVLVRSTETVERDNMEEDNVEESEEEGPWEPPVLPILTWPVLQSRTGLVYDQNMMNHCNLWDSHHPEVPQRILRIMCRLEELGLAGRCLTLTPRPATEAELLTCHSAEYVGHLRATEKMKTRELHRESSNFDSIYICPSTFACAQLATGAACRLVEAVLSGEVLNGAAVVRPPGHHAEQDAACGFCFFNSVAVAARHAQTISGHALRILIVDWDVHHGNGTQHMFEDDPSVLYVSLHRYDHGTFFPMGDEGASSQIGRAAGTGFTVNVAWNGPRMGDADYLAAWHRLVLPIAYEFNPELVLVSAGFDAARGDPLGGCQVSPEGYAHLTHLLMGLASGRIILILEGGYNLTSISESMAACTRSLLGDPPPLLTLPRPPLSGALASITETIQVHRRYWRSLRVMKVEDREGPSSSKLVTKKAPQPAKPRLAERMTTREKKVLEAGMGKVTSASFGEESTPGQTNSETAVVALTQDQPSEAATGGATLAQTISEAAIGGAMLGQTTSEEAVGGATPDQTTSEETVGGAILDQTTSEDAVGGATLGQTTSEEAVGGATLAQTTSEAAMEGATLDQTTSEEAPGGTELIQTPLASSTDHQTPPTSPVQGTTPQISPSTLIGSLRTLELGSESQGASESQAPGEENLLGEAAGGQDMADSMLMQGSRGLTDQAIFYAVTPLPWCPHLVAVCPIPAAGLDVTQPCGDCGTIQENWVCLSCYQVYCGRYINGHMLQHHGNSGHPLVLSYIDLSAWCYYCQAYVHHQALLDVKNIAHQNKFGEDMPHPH

[4] = test system: AcH4K12 in mouse primary cultured forebrain neurons; experiment: Neuronal histone acetylation immunofluorescence assay, AcH4K12; settings: AcH4K12 and AcH3K9; more potent than SAHA
recombinant HDAC5 = recombinant HDAC5 (Homo sapiens, UniProt Q9UQL6); experiment: In vitro HDAC enzymatic assay, HDAC5; settings: read-out: IC50 for inhibition of enzymatic activity of HDAC5; Class IIa
Sequence of recombinant HDAC5 (Q9UQL6 whole entry): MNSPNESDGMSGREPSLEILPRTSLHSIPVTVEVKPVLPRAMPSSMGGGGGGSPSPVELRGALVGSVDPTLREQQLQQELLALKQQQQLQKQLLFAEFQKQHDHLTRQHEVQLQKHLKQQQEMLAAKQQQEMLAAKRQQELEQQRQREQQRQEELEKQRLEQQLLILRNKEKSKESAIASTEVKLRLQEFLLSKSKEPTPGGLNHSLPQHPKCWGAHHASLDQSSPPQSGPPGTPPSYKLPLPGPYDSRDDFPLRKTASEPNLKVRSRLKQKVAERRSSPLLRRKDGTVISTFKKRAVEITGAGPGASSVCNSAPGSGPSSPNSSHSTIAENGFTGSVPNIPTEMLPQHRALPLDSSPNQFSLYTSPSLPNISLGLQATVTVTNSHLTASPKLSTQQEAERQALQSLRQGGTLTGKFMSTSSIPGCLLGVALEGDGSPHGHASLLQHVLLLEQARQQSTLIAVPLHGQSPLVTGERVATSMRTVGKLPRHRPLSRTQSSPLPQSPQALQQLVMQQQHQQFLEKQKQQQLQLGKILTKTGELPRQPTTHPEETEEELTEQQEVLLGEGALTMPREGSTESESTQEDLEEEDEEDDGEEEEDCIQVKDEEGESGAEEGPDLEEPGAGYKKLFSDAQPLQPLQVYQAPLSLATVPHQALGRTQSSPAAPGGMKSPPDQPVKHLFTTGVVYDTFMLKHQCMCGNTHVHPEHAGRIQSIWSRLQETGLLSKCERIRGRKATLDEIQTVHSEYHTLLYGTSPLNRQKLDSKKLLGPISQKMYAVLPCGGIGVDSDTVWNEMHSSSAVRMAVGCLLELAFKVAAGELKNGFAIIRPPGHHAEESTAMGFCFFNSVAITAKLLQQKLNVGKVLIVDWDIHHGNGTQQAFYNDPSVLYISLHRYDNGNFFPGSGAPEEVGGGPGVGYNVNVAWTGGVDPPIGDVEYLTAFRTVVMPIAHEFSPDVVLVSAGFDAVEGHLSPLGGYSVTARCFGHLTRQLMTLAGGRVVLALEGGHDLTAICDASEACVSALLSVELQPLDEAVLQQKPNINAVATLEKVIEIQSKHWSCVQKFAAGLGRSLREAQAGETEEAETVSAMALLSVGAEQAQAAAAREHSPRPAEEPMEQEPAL

recombinant HDAC7 = target: T2, recombinant HDAC7 (Homo sapiens, UniProt Q8WUI4); experiment: In vitro HDAC enzymatic assay, HDAC7; settings: read-out: IC50 for inhibition of enzymatic activity of HDAC7; Class IIa
T2 sequence (Q8WUI4 1-952): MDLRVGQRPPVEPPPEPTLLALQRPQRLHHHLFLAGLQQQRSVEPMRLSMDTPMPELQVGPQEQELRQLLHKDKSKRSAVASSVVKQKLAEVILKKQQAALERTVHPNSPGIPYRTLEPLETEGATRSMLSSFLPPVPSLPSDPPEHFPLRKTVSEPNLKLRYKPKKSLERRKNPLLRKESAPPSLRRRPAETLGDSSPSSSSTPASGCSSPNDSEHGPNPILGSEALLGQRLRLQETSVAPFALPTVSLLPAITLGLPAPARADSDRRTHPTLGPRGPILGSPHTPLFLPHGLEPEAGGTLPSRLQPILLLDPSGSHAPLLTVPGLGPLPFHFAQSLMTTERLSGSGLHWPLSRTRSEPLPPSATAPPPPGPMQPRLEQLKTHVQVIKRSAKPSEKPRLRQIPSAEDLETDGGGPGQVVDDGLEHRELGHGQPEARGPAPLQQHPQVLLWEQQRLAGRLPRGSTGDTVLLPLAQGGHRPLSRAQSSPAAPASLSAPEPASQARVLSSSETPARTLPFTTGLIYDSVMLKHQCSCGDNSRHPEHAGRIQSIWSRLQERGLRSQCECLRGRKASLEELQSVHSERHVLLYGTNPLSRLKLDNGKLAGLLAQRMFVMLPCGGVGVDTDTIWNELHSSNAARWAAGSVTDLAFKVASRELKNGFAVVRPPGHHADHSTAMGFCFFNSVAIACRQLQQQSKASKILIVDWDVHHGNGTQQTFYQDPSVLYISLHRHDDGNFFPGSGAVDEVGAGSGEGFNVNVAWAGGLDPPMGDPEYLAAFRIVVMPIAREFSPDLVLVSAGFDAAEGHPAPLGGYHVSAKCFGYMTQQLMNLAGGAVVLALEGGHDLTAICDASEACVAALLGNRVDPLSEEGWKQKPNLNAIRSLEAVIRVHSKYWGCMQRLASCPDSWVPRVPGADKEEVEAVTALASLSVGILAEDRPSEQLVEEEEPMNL

C57BL/6J mice = experiment: Open field locomotion prior to footshock; format: in vivo, mouse; settings: 25 mg/kg IP daily, 10 days
[5] = test system: mouse primary forebrain cultures; experiment: Toxicity in primary neuronal cultures on coverslips; format: cell-based; settings: 1 μM, 24 hrs
recombinant HDAC9 = recombinant HDAC9 (Homo sapiens, UniProt Q9UKV0); experiment: In vitro HDAC enzymatic assay, HDAC9; settings: read-out: IC50 for inhibition of enzymatic activity of HDAC9; Class IIa
Sequence of recombinant HDAC9 (Q9UKV0 whole entry): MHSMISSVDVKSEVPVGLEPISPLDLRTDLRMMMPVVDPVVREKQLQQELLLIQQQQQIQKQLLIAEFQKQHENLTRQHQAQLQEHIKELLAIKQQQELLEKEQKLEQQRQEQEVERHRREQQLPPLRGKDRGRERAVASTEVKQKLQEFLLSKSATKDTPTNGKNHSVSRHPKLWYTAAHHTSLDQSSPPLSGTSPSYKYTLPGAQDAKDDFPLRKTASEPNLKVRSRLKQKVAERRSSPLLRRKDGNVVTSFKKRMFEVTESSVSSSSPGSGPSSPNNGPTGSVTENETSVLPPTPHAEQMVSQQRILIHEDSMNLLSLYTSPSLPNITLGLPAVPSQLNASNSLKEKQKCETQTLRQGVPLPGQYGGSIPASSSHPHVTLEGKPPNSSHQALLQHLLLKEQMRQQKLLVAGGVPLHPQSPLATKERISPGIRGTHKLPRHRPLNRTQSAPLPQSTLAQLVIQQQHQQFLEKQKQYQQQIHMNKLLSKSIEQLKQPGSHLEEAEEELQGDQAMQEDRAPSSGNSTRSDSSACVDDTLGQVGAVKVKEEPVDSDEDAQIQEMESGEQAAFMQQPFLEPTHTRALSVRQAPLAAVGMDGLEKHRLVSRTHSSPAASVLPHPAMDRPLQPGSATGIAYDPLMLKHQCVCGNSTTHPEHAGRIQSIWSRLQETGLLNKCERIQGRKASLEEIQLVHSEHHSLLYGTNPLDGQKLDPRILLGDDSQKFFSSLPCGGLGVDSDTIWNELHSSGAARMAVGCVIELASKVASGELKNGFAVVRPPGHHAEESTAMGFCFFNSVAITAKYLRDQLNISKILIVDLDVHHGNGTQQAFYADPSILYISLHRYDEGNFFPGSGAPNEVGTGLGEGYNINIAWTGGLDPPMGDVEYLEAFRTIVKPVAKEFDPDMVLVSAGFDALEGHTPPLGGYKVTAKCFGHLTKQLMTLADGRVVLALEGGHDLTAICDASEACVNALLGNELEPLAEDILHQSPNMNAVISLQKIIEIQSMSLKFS

[6] = test system: hippocampal acetylation of H4K12 and H3K9; experiment: Western blot of hippocampal histone acetylation after IP injection; format: in vivo, mouse; settings: one hour after IP injection
recombinant HDAC3 = recombinant HDAC3 (Homo sapiens, UniProt O15379); experiment: In vitro HDAC enzymatic assay, HDAC3
Sequence of recombinant HDAC3 (O15379 whole entry): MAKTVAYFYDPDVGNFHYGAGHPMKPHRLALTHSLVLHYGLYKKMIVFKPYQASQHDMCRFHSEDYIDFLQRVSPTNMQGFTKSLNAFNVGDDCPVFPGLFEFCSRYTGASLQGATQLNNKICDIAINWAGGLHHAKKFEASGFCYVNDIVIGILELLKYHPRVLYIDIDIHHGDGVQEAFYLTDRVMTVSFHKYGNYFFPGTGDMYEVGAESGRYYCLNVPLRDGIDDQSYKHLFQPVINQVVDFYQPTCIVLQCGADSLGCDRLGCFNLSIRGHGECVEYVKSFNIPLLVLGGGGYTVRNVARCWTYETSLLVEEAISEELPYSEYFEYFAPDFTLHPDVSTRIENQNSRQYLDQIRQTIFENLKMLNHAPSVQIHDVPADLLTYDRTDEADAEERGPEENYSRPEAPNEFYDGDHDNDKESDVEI
Sequence of recombinant HDAC3 (Q9Y618 395-489 partner limits assumed): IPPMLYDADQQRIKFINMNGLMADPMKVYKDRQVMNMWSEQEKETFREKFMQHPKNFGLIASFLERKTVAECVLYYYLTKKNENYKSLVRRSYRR

[7] = test system: mouse primary forebrain cultures; experiment: Synapsin I punctae imaging along Map2-positive dendrites; format: cell-based; settings: 1 μM, 24 hr
recombinant HDAC1 [8] = target: T3, recombinant HDAC1 (Homo sapiens, UniProt Q13547); experiment: biochemical
T3 sequence (Q13547 whole entry): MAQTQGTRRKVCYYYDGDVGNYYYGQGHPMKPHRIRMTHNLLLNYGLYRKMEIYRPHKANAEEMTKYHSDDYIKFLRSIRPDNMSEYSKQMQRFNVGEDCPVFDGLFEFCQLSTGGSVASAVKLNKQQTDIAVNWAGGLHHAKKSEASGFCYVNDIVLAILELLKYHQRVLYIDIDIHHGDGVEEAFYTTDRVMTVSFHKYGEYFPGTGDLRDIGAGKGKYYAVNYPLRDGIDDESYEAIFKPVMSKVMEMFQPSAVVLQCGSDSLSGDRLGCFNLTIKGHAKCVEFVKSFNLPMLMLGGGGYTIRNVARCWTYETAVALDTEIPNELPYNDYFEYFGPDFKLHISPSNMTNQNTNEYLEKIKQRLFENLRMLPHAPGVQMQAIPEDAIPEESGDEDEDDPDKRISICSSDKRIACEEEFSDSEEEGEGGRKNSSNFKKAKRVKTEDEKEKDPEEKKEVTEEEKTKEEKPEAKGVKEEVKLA

recombinant HDAC4 = recombinant HDAC4 (Homo sapiens, UniProt P56524); experiment: In vitro HDAC enzymatic assay, HDAC4; settings: read-out: IC50 for inhibition of enzymatic activity of HDAC4; Class IIa
Sequence of recombinant HDAC4 (P56524 whole entry): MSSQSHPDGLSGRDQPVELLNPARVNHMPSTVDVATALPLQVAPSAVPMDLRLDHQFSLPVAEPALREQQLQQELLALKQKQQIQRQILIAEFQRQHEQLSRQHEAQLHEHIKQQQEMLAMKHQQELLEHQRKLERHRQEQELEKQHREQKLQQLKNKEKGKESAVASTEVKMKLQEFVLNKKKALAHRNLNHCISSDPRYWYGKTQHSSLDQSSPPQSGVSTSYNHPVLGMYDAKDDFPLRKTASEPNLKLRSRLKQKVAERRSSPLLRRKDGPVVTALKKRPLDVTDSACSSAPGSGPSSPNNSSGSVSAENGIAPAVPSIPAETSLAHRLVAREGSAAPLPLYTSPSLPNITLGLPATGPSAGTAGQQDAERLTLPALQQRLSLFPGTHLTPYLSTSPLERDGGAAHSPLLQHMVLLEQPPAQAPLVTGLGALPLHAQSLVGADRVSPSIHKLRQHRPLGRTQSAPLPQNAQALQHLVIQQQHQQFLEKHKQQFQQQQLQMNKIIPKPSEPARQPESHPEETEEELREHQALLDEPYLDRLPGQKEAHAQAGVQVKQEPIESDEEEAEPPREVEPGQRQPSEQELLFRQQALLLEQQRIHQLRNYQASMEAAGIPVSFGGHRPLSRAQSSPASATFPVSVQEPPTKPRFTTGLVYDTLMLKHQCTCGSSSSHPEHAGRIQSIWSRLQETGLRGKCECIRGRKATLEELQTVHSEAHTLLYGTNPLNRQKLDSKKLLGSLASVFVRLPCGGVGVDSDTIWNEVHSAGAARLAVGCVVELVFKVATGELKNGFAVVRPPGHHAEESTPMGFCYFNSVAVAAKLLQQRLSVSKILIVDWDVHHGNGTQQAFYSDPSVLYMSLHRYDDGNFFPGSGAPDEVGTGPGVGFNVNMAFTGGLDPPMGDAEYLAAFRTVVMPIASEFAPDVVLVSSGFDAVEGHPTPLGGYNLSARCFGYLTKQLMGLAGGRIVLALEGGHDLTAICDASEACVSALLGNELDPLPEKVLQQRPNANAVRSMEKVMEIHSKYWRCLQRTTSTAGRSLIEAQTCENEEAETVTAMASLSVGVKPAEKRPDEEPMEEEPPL

recombinant HDAC1 [9] = target: T3, recombinant HDAC1; settings: more potent than SAHA
[10] = test system: mouse forebrain primary cultured neurons; experiment: Transcriptome profiling; format: cell-based; settings: 1 μM, 24 hrs
[11] = test system: Homer1 expression in cortical neurons; experiment: NanoString nCounter gene expression assay; format: cell-based, mouse; settings: crebinostat 1 μM 24 hours, BDNF 20 ng/ml last 6 hours
[12] = test system: mouse forebrain primary cultured neurons; experiment: Quantitative RT-PCR assays of gene expression; format: cell-based; settings: 1 μM
[13] = test system: acetylated histone H3, H4, H2A, H2B in cultured primary mouse neurons; experiment: Western blotting of neuronal histone acetylation; format: cell-based; settings: 1 μM, 24 hrs
[14] = test system: AcH4K12 in mouse primary forebrain cultures; experiment: High resolution neuronal histone acetylation imaging; format: cell-based; settings: 1 μM, 24 hrs

SMILES: CC(/C=C/C(=O)NO)=C\[C@@H](C)C(=O)c1ccc(N(C)C)cc1 [trichostatin A]
effect on forskolin induction of the CREB reporter gene [1]: further enhanced

SMILES: O=C(CCCCCCC(=O)Nc1ccccc1)NO [SAHA, suberoylanilide hydroxamic acid, reference compound]
Egr1-EGFP reporter gene activity [2]: induced | expression of Grn (granulin) in cell lines (Grn (granulin)): upregulate

half-life ([3]; C57BL/6, mouse, brain, ip, 25 mg/kg, half-life (T1/2), mouse brain): 43.2 min | time of Cmax in brain post-injection ([3]; mouse): 30 min | IC50 (recombinant HDAC2): 1 ± 0.08 nM | IC50 (recombinant HDAC6): 9.3 ± 0.6 nM | IC50 (recombinant HDAC5): > 2000 nM | IC50 (recombinant HDAC7): > 2000 nM | exploratory activity immediately prior to foot shock versus vehicle (C57BL/6J mice): no significant differences | IC50 (recombinant HDAC9): > 2000 nM | IC50 (recombinant HDAC3): 2 ± 0.3 nM | IC50 (recombinant HDAC1 [8]): 0.7 ± 0.04 nM | IC50 (recombinant HDAC4): > 2000 nM | potency relative to SAHA for inhibition of class I HDACs 1-3 (recombinant HDAC1 [9]): approximately 10 fold
SMILES: O=C(CCCCCC(=O)NN=Cc1ccc(-c2ccccc2)cc1)NO [crebinostat, 7-(2-([1,1′-biphenyl]-4-ylmethylene)hydrazinyl)-N-hydroxy-7-oxoheptanamide]
effect on forskolin induction of the CREB reporter gene [1]: strong activation of the reporter only in the presence of forskolin | potency relative to SAHA at inducing histone acetylation in neurons [4]: ~ 6 fold | toxicity in neuronal cultures [5]: no detectable toxicity | total hippocampal acetylation of H4K12 and H3K9 [6]: not statistically significant | increase in dendritic synapsin I punctae density [7]: ~2 fold | synapsin I punctae size or staining intensity [7]: did not alter | total dendrite length per image [7]: did not alter | Egr1-EGFP reporter gene activity [2]: induced | Fold upregulation (Illumina array) Aldh2 [10]: 2.0 fold | Fold upregulation (Illumina array) Sdcbp [10]: 2.2 fold | regulation of Homer1 expression together with BDNF stimulation [11]: synergistic | Grn mRNA expression ([12]; 24 hours): upregulate | Hspa1b (Hsp70) mRNA expression ([12]; 24 hours): upregulated | Mapt mRNA expression ([12]; 24 hours): downregulated | Bdnf mRNA expression ([12]; 24 hours, Bdnf transcript IV): upregulated | Fold upregulation (RT-PCR) Aldh2 ([12]; 24 hrs, normalized to Gapdh): 2.3 fold | Fold upregulation (RT-PCR) Egr1 ([12]; 24 hrs, normalized to Gapdh): 3.9 fold | Fold upregulation (RT-PCR) Pik3c3 ([12]; 24 hrs, normalized to Gapdh): 2.2 fold | Fold upregulation (RT-PCR) Sdcbp ([12]; 24 hrs, normalized to Gapdh): 2.3 fold | acetylation of histone H3, H4, H2A and H2B (western blot) [13]: strong increases | histone acetylation (AcH4K12) in cultures on glass coverslips [14]: robust increase

SMILES: C=C[C@@]1(C)CC(=O)[C@]2(O)[C@@]3(C)[C@@H](O)CCC(C)(C)[C@@H]3[C@H](O)[C@H](OC(C)=O)[C@@]2(C)O1 [forskolin]
induction of the CREB reporter gene ([1]; 10 μM, 4 hours, PC12 cells): ~ 4 fold
